Data reported in US9573884B2 (priority 2010, dated 2017).
Where “and” joins values, the source holds several entries; their conditions need not be identical. Equal entries are not always repeated.

Legend:
Assay type in all cases: cell-based
Staphylococcus aureas = tested on: Staphylococcus aureas
Pseudomonas aeruginosa = tested on: Pseudomonas aeruginosa
[1] = tested on: Pseudomonas aeruginosa and Staphylococcus aureas

SMILES: CC/C=C/CCCCCCCC(=O)NCCN1CC[N+](C)=C1CCCCCCC/C=C/CC [C12-13, C12 DETA Quat]
- % Kill (Staphylococcus aureas): 48.3% and 33.1%
- % Kill (Pseudomonas aeruginosa): 27.1% and 13.7%
- Overall Rating [1]: good
